Values belong to the compound of their own block, whether it stands above or below them.
Experiments:
[1] = system: T1, Receptor-type tyrosine-protein kinase FLT3 (Homo sapiens), P36888 [D835Y]; assay: Selectivity interaction (Kinase panel (Z-LYTE Assay)) EUB0001632a FLT3; conditions: at 10 µM
T1 sequence (whole entry): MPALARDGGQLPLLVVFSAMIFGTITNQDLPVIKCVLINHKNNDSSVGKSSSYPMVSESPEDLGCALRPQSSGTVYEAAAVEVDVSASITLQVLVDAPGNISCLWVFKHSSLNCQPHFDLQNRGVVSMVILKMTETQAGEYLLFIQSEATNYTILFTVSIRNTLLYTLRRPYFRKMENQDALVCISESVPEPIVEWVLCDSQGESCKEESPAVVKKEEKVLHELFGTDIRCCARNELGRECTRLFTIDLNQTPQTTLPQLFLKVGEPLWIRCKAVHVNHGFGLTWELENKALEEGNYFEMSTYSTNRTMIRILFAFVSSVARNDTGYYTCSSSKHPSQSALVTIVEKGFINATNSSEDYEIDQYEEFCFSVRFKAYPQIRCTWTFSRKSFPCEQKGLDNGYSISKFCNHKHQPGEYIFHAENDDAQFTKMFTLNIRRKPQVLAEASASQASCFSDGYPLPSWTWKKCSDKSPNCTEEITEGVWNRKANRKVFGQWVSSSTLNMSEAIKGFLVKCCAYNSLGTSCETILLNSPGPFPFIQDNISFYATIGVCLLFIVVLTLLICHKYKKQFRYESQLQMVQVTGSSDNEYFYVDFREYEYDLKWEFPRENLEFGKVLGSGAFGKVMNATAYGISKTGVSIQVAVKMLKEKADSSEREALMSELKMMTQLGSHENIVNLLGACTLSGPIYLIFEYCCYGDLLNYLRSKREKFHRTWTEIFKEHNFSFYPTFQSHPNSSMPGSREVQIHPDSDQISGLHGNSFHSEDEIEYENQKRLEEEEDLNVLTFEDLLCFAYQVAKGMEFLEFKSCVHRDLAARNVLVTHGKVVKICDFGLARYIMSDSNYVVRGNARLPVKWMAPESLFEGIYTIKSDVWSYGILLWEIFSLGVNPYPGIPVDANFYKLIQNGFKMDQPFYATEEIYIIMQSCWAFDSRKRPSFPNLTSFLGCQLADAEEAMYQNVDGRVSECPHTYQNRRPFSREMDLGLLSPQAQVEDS

[2] = target: Hepatocyte growth factor-like protein (Homo sapiens) (UniProt P26927); assay: Selectivity interaction (KinomeScan (DiscoverX)) EUB0000666a MST1; conditions: at 10 µM
[3] = target: T2, Ephrin type-B receptor 6 (Homo sapiens) (UniProt O15197); assay: Selectivity interaction (KinomeScan (DiscoverX)) EUB0001049a EPHB6; conditions: at 1 µM
T2 sequence (whole entry): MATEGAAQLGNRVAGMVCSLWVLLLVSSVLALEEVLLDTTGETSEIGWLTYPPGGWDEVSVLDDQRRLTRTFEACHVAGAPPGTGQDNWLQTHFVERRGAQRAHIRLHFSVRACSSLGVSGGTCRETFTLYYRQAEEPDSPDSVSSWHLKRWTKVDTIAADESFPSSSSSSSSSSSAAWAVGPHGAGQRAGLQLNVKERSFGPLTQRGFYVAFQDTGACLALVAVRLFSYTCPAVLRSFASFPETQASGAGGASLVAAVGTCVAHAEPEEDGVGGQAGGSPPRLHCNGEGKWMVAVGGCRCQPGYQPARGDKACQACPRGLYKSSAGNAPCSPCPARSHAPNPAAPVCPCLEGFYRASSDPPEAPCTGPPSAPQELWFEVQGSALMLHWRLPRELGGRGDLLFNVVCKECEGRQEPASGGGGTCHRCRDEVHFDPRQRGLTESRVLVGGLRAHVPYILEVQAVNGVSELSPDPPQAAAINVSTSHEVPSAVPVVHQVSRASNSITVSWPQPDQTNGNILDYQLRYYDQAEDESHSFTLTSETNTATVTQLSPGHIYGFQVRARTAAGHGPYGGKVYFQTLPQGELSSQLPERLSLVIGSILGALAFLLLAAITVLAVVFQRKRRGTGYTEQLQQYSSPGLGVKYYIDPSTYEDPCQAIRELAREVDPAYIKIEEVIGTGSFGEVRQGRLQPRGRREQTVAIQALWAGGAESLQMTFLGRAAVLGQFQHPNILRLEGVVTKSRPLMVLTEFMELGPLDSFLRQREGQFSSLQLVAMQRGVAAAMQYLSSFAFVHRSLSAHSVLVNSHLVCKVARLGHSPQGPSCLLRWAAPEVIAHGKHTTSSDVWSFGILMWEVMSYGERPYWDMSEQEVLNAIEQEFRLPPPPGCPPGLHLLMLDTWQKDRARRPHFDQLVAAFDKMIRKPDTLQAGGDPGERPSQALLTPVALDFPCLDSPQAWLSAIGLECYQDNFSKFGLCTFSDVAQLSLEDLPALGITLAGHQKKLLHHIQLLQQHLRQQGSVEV

[4] = target: Serine/threonine-protein kinase SBK1 (Homo sapiens) (UniProt Q52WX2); assay: Selectivity interaction (KinomeScan (DiscoverX)) EUB0000045b SBK1; conditions: at 1 µM
[5] = target: T3, Serine/threonine-protein kinase haspin (Homo sapiens) (UniProt Q8TF76); assay: Selectivity interaction (KinomeScan (DiscoverX)) EUB0001079a GSG2; conditions: at 1 µM
T3 sequence (whole entry): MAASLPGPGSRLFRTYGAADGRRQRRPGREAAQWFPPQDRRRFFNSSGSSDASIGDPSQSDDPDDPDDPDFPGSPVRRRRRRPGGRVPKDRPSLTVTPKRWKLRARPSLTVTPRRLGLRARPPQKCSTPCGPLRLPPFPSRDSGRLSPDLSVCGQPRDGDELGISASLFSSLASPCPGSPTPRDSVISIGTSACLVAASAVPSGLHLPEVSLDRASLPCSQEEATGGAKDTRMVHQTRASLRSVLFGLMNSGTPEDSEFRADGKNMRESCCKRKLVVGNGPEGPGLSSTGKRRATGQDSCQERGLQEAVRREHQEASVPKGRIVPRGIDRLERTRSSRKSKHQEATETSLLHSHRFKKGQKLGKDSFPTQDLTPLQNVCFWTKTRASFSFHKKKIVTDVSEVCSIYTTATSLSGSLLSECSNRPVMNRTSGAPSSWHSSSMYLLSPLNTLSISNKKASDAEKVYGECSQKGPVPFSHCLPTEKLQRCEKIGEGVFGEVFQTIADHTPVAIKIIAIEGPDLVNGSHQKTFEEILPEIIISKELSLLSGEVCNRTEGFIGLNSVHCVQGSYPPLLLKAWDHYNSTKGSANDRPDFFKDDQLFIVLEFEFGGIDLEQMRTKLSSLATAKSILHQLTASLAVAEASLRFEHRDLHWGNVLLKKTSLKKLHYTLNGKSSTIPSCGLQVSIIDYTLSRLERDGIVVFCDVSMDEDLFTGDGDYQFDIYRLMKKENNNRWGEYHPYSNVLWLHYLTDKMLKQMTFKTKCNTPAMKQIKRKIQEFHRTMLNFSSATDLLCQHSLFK

Serine/threonine-protein kinase SBK1 (Homo sapiens), sequence (Q52WX2 whole entry): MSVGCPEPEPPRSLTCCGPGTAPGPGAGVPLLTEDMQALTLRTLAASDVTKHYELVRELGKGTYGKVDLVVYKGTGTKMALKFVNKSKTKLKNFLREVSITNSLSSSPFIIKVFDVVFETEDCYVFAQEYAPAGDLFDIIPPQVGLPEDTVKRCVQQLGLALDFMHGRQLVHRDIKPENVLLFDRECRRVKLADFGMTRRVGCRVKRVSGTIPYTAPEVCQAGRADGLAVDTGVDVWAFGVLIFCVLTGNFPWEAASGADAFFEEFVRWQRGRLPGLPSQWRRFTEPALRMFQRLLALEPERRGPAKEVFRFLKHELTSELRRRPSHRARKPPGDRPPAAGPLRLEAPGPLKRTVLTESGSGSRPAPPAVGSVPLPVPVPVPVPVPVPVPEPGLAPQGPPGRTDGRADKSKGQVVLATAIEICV

% of control [1]: 33.4%
Compound: Cn1cc(-n2cnc3c(NCc4nc5cc(Cl)c(Cl)cc5[nH]4)nc(N4CCOCC4)nc32)cn1

Compound: O=C(NOC[C@H](O)CO)c1ccc(F)c(F)c1Nc1ccc(I)cc1F
% of control [2]: 100%

Compound: COc1cc(Nc2nc(C)cc(-c3cnn4nc(OC)ccc34)n2)cc(C(F)(F)F)c1
% of control [3]: 78%

Compound: C=CC(=O)Nc1cc(-n2c(=O)ccc3cnc4ccc(-c5ccc(NS(C)(=O)=O)cc5)cc4c32)ccc1C
% of control [4]: 4.6%

Compound: Nc1cnc(N2CCc3cc(S(=O)(=O)Nc4c(F)cc(Cl)cc4F)cc(N4CCCC4=O)c32)nc1 [TP-020n]
% of control [5]: 100%
